In patent US9995730B2, “Hypoxia Inducible Factor (HIF) Activity Reporter Cell Line” (Universiti Putra Malaysia (UPM), priority 2012, dated 2018):

What was measured:
[1] = tested on: HIF; assay: HIF activity reporter assay (single luciferase assay, 4XEPO-HRE-FLuc stable Saos-2 clone 3); assay type: cell-based, human; settings: for reporter signal intensities: FIGS. 9A and B legend
Experimental: To confirm the HIF reporter activity of neomycin-resistant parental population, a single luciferase assay was conducted. Initially, 2.5×10^4 of the cells were plated in wells of a 48-well plates in antibiotic-free DMEM with 10% FBS for 16 hours. One of the plates was then incubated for 24 hours in a normoxic (21% 02) gaseous atmosphere in a humidified CO2 incubator while the other was incubated in a hypoxic (0.5% 02) gaseous environment in a hypoxic chamber (BioSpherix, USA) controlled by an oxygen regulator (ProOx model 110, BioSpherix, USA. After 24 hours of exposure to different oxygen concentrations, Bright-Glo™ Luciferase Assay (Promega, USA) was conducted to analyse the HIF reporter activity. Initially, growth media in each well was discarded and the cells were rinsed once with 300 μl of 1×PBS. Room temperature-equilibrated Glo Lysis Buffer (GLB; 60 μl) was then added into the wells. Plates were then gently rocked on a shaker for 5 min at room temperature. Cell lysis was confirmed visually by observing the wells of the 48-well plate under a light microscope. Thirty microliters of the resulting cell lysates were then transferred into individual glass vials. Bright-Glo™ Assay Reagent was then added into each tube at a 1:1 (v/v) ratio. Luminescence intensity was immediately read and recorded by a Luminometer (Sirius-2, Titertek-Berthold).
(§1) To verify the property of the stable single cell population as an assay system to measure HIF activity, a proof of concept study was performed with commercially available and known HIF inhibitors. […] Treatment of these drugs in certain cancer cells leads to cell death. To confirm that the inhibition of bioluminescence in our cell assay system is due to HIF inhibition rather than this cytotoxic effect, we simultaneously determined the viability of cells under various concentrations of each drug used for the inhibition assay. The 3-(4,5-dimethylthiazol-2-yl)-2,5-[…] bromide MTT assay was used. […] The cells were then incubated in either normoxic or hypoxic conditions for 24 hours. After the treatment, cell culture media was replaced with fresh serum-free DMEM containing 0.5 mg/ml MTT. After 4 hours of incubation in a humidified CO2 incubator at 37° C., formazan precipitates were dissolved with 100 μl of DMSO. The resulting reaction was read using a microplate reader at 570 nm absorbance and 630 nm as the reference wavelength. The half maximal inhibitory concentration (IC50) of each drug towards the cells was determined by plotting graphs using the Graphpad Prism 5 software. HIF inhibitory effects at the various concentrations of drugs tested were also measured using the single luciferase assay system. A correlation between the drugs' effects on cell viability and HIF inhibition was then evaluated.

[2] = tested on: clone 3 cells (stable Saos-2 osteosarcoma clone); assay: MTT cell viability assay; assay type: cell-based, human
Experimental: as §1, with “To confirm that the inhibition of bioluminescence in our cell assay system is due to HIF inhibition rather than this cytotoxic effect, we simultaneously determined the viability of cells under various concentrations of each drug used for the inhibition assay.” left out

N.N.[Cl][Pt][Cl] [cisplatin]
reporter signal intensities [1]: reduction of reporter signal intensities | inhibition of luciferase signals ([1]; hypoxic clone 3, 25 μM concentration): ~60%

CC(C)C[C@H](NC(=O)[C@H](Cc1ccccc1)NC(=O)c1cnccn1)B(O)O [Bortezomib]
reporter signal intensities [1]: reduction of reporter signal intensities | hypoxia-induced luciferase signal ([1]; clone 3 cells, hypoxia, concentrations of up to 500 nM): significantly reduced | cell viability ([2]; concentrations higher than 500 nM): the inhibition was associated with cell death | cell viability ([2]; concentrations of up to 500 nM): without affecting cell viability
